Reference: a melting point compilation (Tetko et al.; mined from patent text by program, amines drawn as free bases though some values may be those of a salt)

SMILES | melting point
CC1CC(C)(C)NC(c2ccccc2)=N1 (configuration not stated) | 86 to 87 °C
CC(=O)CCc1ccc(C(=O)Nc2ccc3cc(CN4CCCC4)cnc3c2C)cc1 | 106 to 108 °C
COc1c(N2CCC(O)C2)c(F)cc2c(=O)c(C(=O)O)cn(C3CC3)c12 (configuration not stated) | 253 to 254 °C
OCCNc1c(Br)cnc2ccccc12 | 163 to 165 °C
CSC=CC(C)(C)C(=O)Nc1ccc(Cl)cc1 | 105 to 106 °C
CC(C)(C)c1cc(CCC(=O)OC2CCCCCCCCCCC2OC(=O)CCc2cc(C(C)(C)C)c(O)c(C(C)(C)C)c2)cc(C(C)(C)C)c1O (configuration not stated) | 61 to 74 °C
CC(C)N1CC(c2cc(CCc3ccccc3)ncn2)=C(O)C1=O | 156 to 159 °C
COc1ccc(C(=O)Nc2ccc(C)c(NC(=O)c3cccc(N(C)C)c3)c2)cc1OC | 204 to 205 °C
CC(=O)OC(c1ccccc1S(N)(=O)=O)C(C)F (configuration not stated) | 105 to 107 °C
CC(CCCO)C1CCC2C3C(O)CC4CC(O)CCC4(C)C3CCC12C (configuration not stated) | 116 to 118 °C
CC(=CN(C)C)C(=O)c1ccc(Cl)cc1 | 45 to 47 °C
N#Cc1cc(-c2ccc(Cl)s2)[nH]c1Cl | > 200 °C
COc1ccc2oc(C)c(Cc3cccc(NS(=O)(=O)C(F)(F)F)c3)c(=O)c2c1 | 172 to 174 °C
CCOC(=O)c1cnn(-c2ccc(OCC3CC3)c(C#N)c2)c1 | 147 to 149 °C
C=CCOc1cc(-c2cc(=O)c3c(O)cc(O)cc3o2)ccc1OC | 219 °C
N#Cc1cc(C(=O)NNC(=O)c2occc2-c2cccc(OCCc3ccccc3)c2)ccc1O | 131 to 134 °C
COc1ccc(C(CC(N)=O)N2C(=O)c3ccccc3C2=O)cc1 (configuration not stated) | 183 to 188 °C
CCN(CC)c1cccc2nc(C(O)c3ccc(Cl)cc3Cl)n(CCO)c12 (configuration not stated) | 177 to 179 °C
COC(=N)CCCCc1csc(NC(=N)N)n1 | 143 to 145 °C
CCC(C)c1ccc(N(Cc2ccc(C(C)(C)C)cc2)C(=N)N(C)c2ccccc2)cc1 (configuration not stated) | 80 to 82 °C
Clc1cnc2c(Cl)cccc2n1 | 137 to 138 °C
CCC(C)(C)c1cccc(NC=O)c1C | 51 to 53 °C
CCOC(=O)c1ccc2oc(CC)nc2c1 | 35 to 37 °C
COC(=O)c1ccc(/C=C(\C)c2ccc3c(c2)N(C)CCN3C)cc1 | 91 to 93 °C
CCCCCCC1(CCCCCC)c2cc(Br)ccc2-c2ccc(Br)cc21 | 64 to 66 °C
CCn1c(C)nc2cc(C(=O)OC)ccc21 | 118 to 121 °C

SMILES | melting point
COc1cc2cc(C(C#N)(C(C)CC#N)N3CCOCC3)sc2cc1OC (configuration not stated) | 162 to 165 °C
COCCOc1ccc2c(C3C(=O)Nc4ccc(C#N)cc43)nccc2c1 (configuration not stated) | 214 to 219 °C
COc1ccc(Cl)cc1N1C(=O)CON(C)C1=S | 189 to 191 °C
COc1ccc2c(c1)c(Cc1cc(=O)n(-c3cc(C)cc(C)c3)[nH]1)c(C)n2C(=O)c1ccc(Cl)cc1 | 77.5 to 79 °C
COCCOc1cc(N(C)S(=O)(=O)c2ccccn2)c2[nH]c(C3=N[C@@H](CO)CS3)cc2c1 | 147 °C
CC(C)NCC(O)COc1ccccc1-c1ccc(=O)[nH]n1 (configuration not stated) | 150 to 152 °C
COc1nc(Cl)cc2nccn12 | 115 to 118 °C
CNC(=O)C=Cc1cn(C)nc1[N+](=O)[O-] | 200 to 203 °C
O=C1CCc2c(Oc3ccc([N+](=O)[O-])cn3)cccc21 | 119 to 123 °C
COc1ccc(CCN(C)CCCNc2c(Cl)cn[nH]c2=O)cc1OC | 89 to 90 °C
COC(=O)c1cccc2[nH]c(=O)c(-c3csc(-c4ccncc4)n3)cc12 | > 250 °C
COc1cccc(N(CCN2CCC(C(=O)c3ccc(F)cc3)CC2)C(=O)c2ccc([N+](=O)[O-])cc2)c1 | 133 to 135 °C
CC(C)(C)c1cc(-c2n[nH]c(=S)s2)cc(C(C)(C)C)c1O | 190 to 191 °C
CC1(C)COS(=O)(=O)OC1 | 80 to 82 °C
CC(C)(C)OC(=O)N1CCN(c2cncc(Cl)n2)CC1 | 108 °C
CCCc1cc(CCC)n2nc(C)c(C#N)c2n1 | 73 to 74 °C
Cc1cc2cnnc(OCc3ccc(F)cc3)c2n1Cc1ccccc1 | 127 to 132 °C
CCCc1c(OCCCOc2ccc3c(c2CCC)OC(C)(CCC(=O)O)CC3=O)ccc(C(C)=O)c1O (configuration not stated) | 80 to 83 °C
N#Cc1cc(C(=O)NNC(=O)c2occ(-c3ccccc3)c2-c2ccccc2)ccc1OC(=O)c1ccccc1 | 163 to 167 °C
N=C(N)c1c[nH]c2ccc(CCNC(=O)c3ccc(-c4ccnc(OCCN5CCCC5)n4)cc3)cc12 | 104 to 105 °C
CSc1cc2c(cc1C(F)(F)F)N(C(=O)Nc1cccc(C(=O)NCCN3CCOCC3)c1)CC2 | 198 to 200 °C
CC(C)=CCOC(C)C1CCC2=C3C=CC4C(C)(C)C(O)CCC4(C)C3CCC21C (configuration not stated) | 171 to 174 °C
COc1ccc(C(=O)CC(C)(C)C(=O)O)cc1OC | 114 to 116 °C
O=C(Nc1cccc2c1C(=O)c1c-2n[nH]c1-c1ccc(N2CCNCC2)cc1)NN1CCC[C@@H]1COCc1ccccc1 | 207 °C
CCC(=O)NCCC1=CCc2cc(F)c(OC)cc21 | 140 to 143 °C
COC(=O)C1c2c(C)c(O)c(C)c(C)c2OC1(C)C (configuration not stated) | 145 to 146 °C

SMILES | melting point
O=C1C2Cc3cc4ccccc4n3CC2CN1Cc1ccccc1 (configuration not stated) | 121 to 123 °C
CCCc1c(O)c(C(C)=O)cc2c(C)cc(C(=O)O)nc12 | 125 to 127 °C
CC(C)[C@]1(c2ccccc2OCC#CCCl)Sc2ccccc2N(C)C1=O | 136 °C
Cc1ccc(Cc2cnc(NCCCN(Cc3cccc(Cl)c3)c3ccccn3)[nH]c2=O)cn1 | 100 to 104 °C
CN1CCN(c2ccc(NC(=O)n3ccc4cc(Oc5cc(CC(N)=O)ncn5)ccc43)cc2C(F)(F)F)CC1 | 238 to 240 °C
O=C(NC[C@H]1CN(c2cc(F)c(N3CCC(n4ncnn4)CC3)c(F)c2)C(=O)O1)C(Cl)Cl | 160 to 162 °C
CCOC(=O)C1=CC(C(=O)c2cc(Br)ccc2O)=CN2CCc3c([nH]c4ccccc34)C12C(=O)OCC (configuration not stated) | 215 °C
COc1ccc(-c2nc3cc(Cl)c(Cl)cc3[nH]2)cc1N | > 300 °C
COc1ccc(-c2ccc(S(=O)(=O)CC(C)N(O)C=O)cc2)cc1 (configuration not stated) | 197 to 198 °C
COc1ccc2nc(Sc3ccc4c(c3)CC[C@H]3N(C)C(=O)CC[C@]43C)sc2c1 | 102 to 107 °C
CCOC(=O)CS(=O)(=O)CCC=C1SC=CS1 | 103 to 104 °C
Sc1nc2cccccc-2n1 | 300 °C
CN(C)Cc1c(-c2ccccc2)nc2c(C(=O)NC(C#N)c3cccc(F)c3)cccn12 (configuration not stated) | 123 to 124 °C
O=C1OC2(c3ccccc3)CCCN2c2ccccc21 (configuration not stated) | 152 °C
CS(=O)c1nnc(-c2ccc3occ(-c4cc(F)ccc4F)c3c2)o1 (configuration not stated) | 151 to 152 °C
CN(C)C(=O)Cn1c(-c2ccc(F)cc2)nc2cccnc21 | 180 to 183 °C
c1cn(CCCc2ccc(OCc3coc(-c4ccoc4)n3)cc2)cn1 | 85 to 87 °C
O=S1(=O)CCc2nn(-c3ccc(Cl)cc3)c(Br)c2C1 | 138 to 145 °C
CC(C)(C)OC(=O)N1CCc2c(n(CCO)c3c(Cl)c(Cl)ccc23)CC1 | 117 to 120 °C
O=C(O)c1cc(C(F)(F)F)cc(F)c1F | 94 to 96 °C
CCC(C(=O)Nc1c(C)cccc1C)N1C(=O)c2ccccc2C1=O (configuration not stated) | 195 to 196 °C
COc1ccccc1P(CCCP(c1ccccc1OC)c1ccccc1OC)c1ccccc1OC | 149 to 150 °C
COc1cccc(C(O)CNCCN)c1 (configuration not stated) | 50 °C
O=C1OCCC1C(=O)c1ccccc1[N+](=O)[O-] (configuration not stated) | 75 to 76 °C
O=C(O)COc1cccc(COC(=O)N(c2ccccc2)c2ccccc2)c1 | 142 to 144 °C
C[C@H](C=C[C@H](C)[C@H](C)CO)[C@H]1CC[C@H]2C3=CCC4CC(=O)CC[C@]4(C)[C@H]3CC[C@]12C (some centres not stated) | 192 to 193 °C

SMILES | melting point
O=C(Oc1ccccc1)OC1c2nccnc2C(=O)N1c1ccc2ccc(Cl)nc2n1 (configuration not stated) | 270 °C
CC(=O)OCC(=O)C1(O)CCC2C3CC=C4C=C(OC(C)=O)C=CC4(C)C34OC4CC21C (configuration not stated) | 194 °C
COc1ccc(C(=O)Nc2ccc(C)c(C)c2)cc1NC(=S)Nc1cccc(C)c1 | 155 to 160 °C
Cc1nc2ccccc2n1C(C)(C)CO | 180 to 181 °C
Cn1cccc1C=CC(=O)NCCCCCC(=O)NO | 103 to 105 °C
CN1Cc2c(C#CCO)ncn2-c2cccc(Cl)c2C1=O | 250 to 252 °C
CCOC(=O)Cc1sc(Sc2cc(C(=O)OCC)nc(SC)n2)nc1C | 69 to 71 °C
O=C(O)Cc1ccc2nc(Nc3ccccc3)oc2c1 | 222 to 223 °C
N#CCCNc1nonc1-c1nc2ccccc2n1CC(=O)c1ccc(Cl)cc1 | 191 to 192 °C
CC(C)(O)c1ccc(CNC(=O)c2cccnc2Oc2cccc(S(C)(=O)=O)c2)cc1 | 51 to 53 °C
O=C(O)c1cc(F)c(F)c(Cl)c1F | 109 to 111 °C
CCCc1nc(-n2cccc2)c(C(=O)OC)[nH]1 | 135 to 138 °C
COC(=O)CC[C@H](NC(=O)c1cccc(CCC2CNc3nc(NC(=O)C(C)(C)C)nc(O)c3C2)c1)C(=O)OC (some centres not stated) | 141 to 148 °C
CS(=O)(=O)Nc1ccc(CO)cc1Sc1ccc(F)cc1F | 78 to 79 °C
Cc1cc(C(C)(C)C)c(O)c(S(=O)(=O)Nc2ccc(I)cc2)c1 | 184 to 185 °C
OCc1ccc2c(Cl)cccc2c1 | 72 to 75 °C
NS(=O)(=O)c1ccc(CCNC(=O)CCn2cnc3c(=O)[nH]cnc32)cc1 | 212 to 216 °C
CCCc1nc2c(N)nc3cccnc3c2n1CCCC(C)N(OC)C(C)=O (configuration not stated) | 158 to 159 °C
CNC(=S)NS(=O)(=O)C(F)(F)F | 88 to 90 °C
CSc1ncc2cc(C)c(N)nc2n1 | 268 to 270 °C
COc1cccc(C(C)NC(=O)CCc2cnoc2-c2ccc(Cl)cc2)c1 (configuration not stated) | 89 to 90 °C
O=S(=O)(NCCCCOc1ccc(-n2ccnc2)cc1)c1ccc2ccccc2c1 | 157 to 158 °C
CCC1(C)OC(c2ccc(S(N)(=O)=O)cc2)=C(c2ccc(C(C)=O)cc2)C1=O (configuration not stated) | 154 to 155 °C
CCCCSc1ccc(C=O)cc1[N+](=O)[O-] | 93 °C
